These results are taken from US8822467B2 (Ligand Pharmaceuticals Inc., priority 2009, dated 2014).

The structures appear in SMILES notation. A value given as a limit tells only on which side of the number the result lay.

The target of the first test is T1, human CRTH2 (Homo sapiens, UniProt Q9Y5Y4).
T1 construct: expressed in transfected cells
T1 sequence (Q9Y5Y4 1-395): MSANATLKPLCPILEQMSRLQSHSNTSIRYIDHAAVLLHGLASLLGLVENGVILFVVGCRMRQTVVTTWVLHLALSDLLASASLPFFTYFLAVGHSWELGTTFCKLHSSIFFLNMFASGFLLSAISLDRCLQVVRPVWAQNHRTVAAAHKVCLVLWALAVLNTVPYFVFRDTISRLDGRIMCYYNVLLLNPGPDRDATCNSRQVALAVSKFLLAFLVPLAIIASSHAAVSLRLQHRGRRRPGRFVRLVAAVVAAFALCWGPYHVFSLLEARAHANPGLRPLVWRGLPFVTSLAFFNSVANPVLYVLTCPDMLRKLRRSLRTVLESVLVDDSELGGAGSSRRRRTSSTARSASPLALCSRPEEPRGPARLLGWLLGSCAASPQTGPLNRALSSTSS
As to the kind of experiment: [35S]GTPγS binding assay (SPA) on membranes from CHO-K1 cells stably expressing human CRTH2, stimulated with 60 nM DHK-PGD2. Type of test: biochemical. Particulars: membranes of CHO-K1 cells expressing human CRTH2; 60 nM DHK-PGD2; Table 1; read-out: CRTH2 hGTPγS IC50. The procedure, abridged:
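Read-out is scintillation proximity: bound [35S]GTPγS (500 pM, with 10 μM GDP) was counted 4 h after centrifuging a 2 h ambient-temperature incubation. Reactions held 4 μg human CRTH2 CHO-K1 membrane protein, 60 nM DHK-PGD2 agonist and test compounds at increasing concentrations. Buffer: 20 mM HEPES pH 7.4, 10 mM MgCl2, 300 mM NaCl, 0.2% BSA, 1% DMSO.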
(In general: GTPγS resists hydrolysis and so accumulates on activated G proteins.)
Turning to `CN(Cc1cc(-c2cccc(C#N)c2)c(OCC(=O)O)cc1Cl)S(=O)(=O)c1ccc(F)c(Cl)c1` [Example 42, 2-(3-cyanophenyl)-4-((3-chloro-4-fluoro-N-methylphenylsulfonamido)methyl)-5-chlorophenoxyacetic acid], the IC50 is 1.5 nM.

The test is the same for the next values; noted with them: potency class symbols; Table 2; read-out: CRTH2 hGTPγS IC50.
`COc1cc(S(=O)(=O)N(C)Cc2ccc(OCC(=O)O)c(-c3cccc(C#N)c3)c2)ccc1F` [Example 103, 2-(3-cyanophenyl)-4-((3-methoxy-4-fluoro-N-methylphenylsulfonamido)methyl)phenoxyacetic acid]: the IC50 lay within 100 to 1000 nM.
As for `CN(Cc1ccc(OCC(=O)O)c(-c2cc(F)ccc2F)c1)S(=O)(=O)c1ccccc1` [Example 166, 2-(2,5-difluorophenyl)-4-((N-methylphenylsulfonamido)methyl)phenoxyacetic acid], the 50% inhibitory concentration (IC50) lay in the range of 1000 to 10000 nM.
With `N#Cc1cc(F)cc(-c2cc(CNS(=O)(=O)c3ccc(F)c(Cl)c3)ccc2OCC(=O)O)c1` [Example 193, 2-(3-cyano-5-fluorophenyl)-4-((3-chloro-4-fluorophenylsulfonamido)methyl)phenoxyacetic acid], the IC50 was below 100 nM.
Consider `CCS(=O)(=O)c1cccc(-c2cc(CN(C)S(=O)(=O)c3ccc(F)c(F)c3)ccc2OCC(=O)O)c1` [Example 58, 2-(3-ethylsulfonylphenyl)-4-((3,4-difluoro-N-methylphenylsulfonamido)methyl)phenoxyacetic acid], for which the IC50 is below 100 nM.
Still for that read-out and setting: next, `CN(Cc1ccc(OCC(=O)O)c(-c2ccc(F)c(Cl)c2)c1)S(=O)(=O)c1ccc(F)cc1` [Example 157, 2-(3-chloro-4-fluorophenyl)-4-((4-fluoro-N-methylphenylsulfonamido)methyl)phenoxyacetic acid]: 1000 to 10000 nM; `CN(Cc1ccc(OCC(=O)O)c(-c2ccc(Cl)cc2)c1)S(=O)(=O)c1ccccc1` [Example 179, 2-(4-chlorophenyl)-4-((N-methylphenylsulfonamido)methyl)phenoxyacetic acid]: 1000 to 10000 nM.
As for `CN(Cc1ccc(OCC(=O)O)c(-c2cc(F)cc(F)c2)c1)S(=O)(=O)c1ccc(F)c(F)c1` [Example 90, 2-(3,5-difluorophenyl)-4-((3,4-difluoro-N-methylphenylsulfonamido)methyl)phenoxyacetic acid], the IC50 is below 100 nM.
For `CN(Cc1ccc(OCC(=O)O)c(-c2cccc(C(F)(F)F)c2)c1)S(=O)(=O)c1cccc(F)c1` [Example 126, 2-(3-trifluoromethylphenyl)-4-((3-fluoro-N-methylphenylsulfonamido)methyl)phenoxyacetic acid], the IC50 was in the range of 100 to 1000 nM.
Take `CC(C)N(Cc1ccc(OCC(=O)O)c(-c2cccc(C(F)(F)F)c2)c1)S(=O)(=O)c1ccc(F)c(F)c1` [Example 152, 2-(3-trifluoromethylphenyl)-4-((3,4-difluoro-N-isopropylphenylsulfonamido)methyl)phenoxyacetic acid]: the IC50 is 1000 to 10000 nM.
Still for that read-out and setting: the figure for `CN(Cc1cc(-c2cccc(C#N)c2)c(OCC(=O)O)cc1Cl)S(=O)(=O)c1ccc(F)c(Cl)c1` [Example 42, 2-(3-cyanophenyl)-4-((3-chloro-4-fluoro-N-methylphenylsulfonamido)methyl)-5-chlorophenoxyacetic acid] is below 100 nM.
On to `CN(Cc1cc(-c2cc(F)cc(C#N)c2)c(OCC(=O)O)cc1F)S(=O)(=O)c1ccc(F)cc1` [Example 208, 2-(3-cyano-5-fluoro-phenyl)-4-((4-fluoro-N-methylphenylsulfonamido)methyl)-5-fluorophenoxyacetic acid], for which the IC50 is below 100 nM.
`COc1ccc(-c2cc(CN(C)S(=O)(=O)c3ccc(F)cc3)ccc2OCC(=O)O)cc1` [Example 164, 2-(4-methoxyphenyl)-4-((4-fluoro-N-methylphenylsulfonamido)methyl)phenoxyacetic acid]: the IC50 was in the range of 1000 to 10000 nM.
Same read-out and setting: the figure for `CN(Cc1ccc(OCC(=O)O)c(-c2cccc(C(F)(F)F)c2)c1)S(=O)(=O)c1ccc(F)c(F)c1` [Example 91, 2-(3-trifluoromethylphenyl)-4-((3,4-difluoro-N-methylphenylsulfonamido)methyl)phenoxyacetic acid] is below 100 nM; for `CN(Cc1ccc(OCC(=O)O)c(-c2cccc(C#N)c2)c1)S(=O)(=O)c1cc(F)cc(Cl)c1` [Example 99, 2-(3-cyanophenyl)-4-((3-chloro-5-fluoro-N-methylphenylsulfonamido)methyl)phenoxyacetic acid] it is below 100 nM.

As usually defined, the IC50 is the concentration that gives 50% inhibition.
